Legend:
[1] = system: proinflammatory gene expression; assay: Proinflammatory gene expression (real time PCR) in PBMCs from ESRD patients; type: in vivo, human; details: ESRD patients treated with paricalcitol vs untreated ESRD hemodialysis patients
Experimental: (§1) Intracellular protein and mRNA levels were measured in PBMCs from ESRD patients on hemodialysis. Inclusion criteria were as follows: age >45 years; male sex; informed consent; and absence of active inflammatory, infectious, or malignant diseases at the initiation or during the study. This study was approved by the IIS-Fundación Jiménez Diaz Ethics Committee. Patients were enrolled after providing written informed consent. PBMCs were separated from whole blood samples (30 ml into EDTA tubes) by a density gradient centrifugation method using Ficoll density gradient centrifugation. In total, 50x10^6 of PBMCs were obtained from 30 ml of whole blood and 6x10^6 PBMCs were used to isolate protein, RNA and nuclear/cytosolic protein levels using the NE-PER Reagent (Pierce) following the manufacturer's instructions.
Total RNA was isolated from cells and mouse kidney samples with Trizol (Invitrogen). The cDNA was synthesized using the High-Capacity cDNA Archive Kit (Applied Biosystems) using 2 µg total RNA primed with random hexamer primers. […] The mRNA copy numbers were calculated for each sample by the instrument software using Ct value. Results are expressed in copy numbers, calculated relative to unstimulated cells or control mice, after normalization against 18S.

[2] = system: CIAP1-TRAF3 complex; assay: TRAF3 immunoprecipitation (ubiquitin-Lys-48, CIAP1) in TWEAK-stimulated HK2 cells; type: cell-based, Human; details: TWEAK 100 ng/ml, paricalcitol 15 umol/L
Experimental: Human kidney proximal tubule epithelial cells (HK2 cell line, ATCC CRL-2190) were grown in RPMI 1640 with 10% fetal bovine serum (FBS), 1% glutamine, 100 U/ml penicillin, 100 µg/ml streptomycin, 5 µg/ml insulin-transferrin-selenite and 36 ng/ml hydrocortisone in 5% CO2 at 37° C. When cells reached 60 to 70% confluence, they were serum-depleted for 24 hours before the experiment.
Cells were stimulated with 100ng/ml recombinant human soluble TWEAK (Millipore) or p-200 µg/ml cresyl-sulfate (Raymond Vanholder and Griet Glorieux, University of Gent, Belgium). Concentrations of TWEAK and p-cresyl-sulfate were based on previously published dose-response experiments (Poveda et al. 2014; Sanz et al. 2008). […] DMSO, used as a solvent in some cases, had no effect on cell viability or on gene expression levels.
Cells growing in tissue culture dish plates, were lysed in 300-500 µl Triton-NP-40 lysis buffer [50 mmol/L Tris-HCl pH 8, 150 mmol/L NaCl, 1 mmol/L phenylmethylsulphonylfluoride, 1% NP-40/IGEPAL, and a phosphatase-inhibitor cocktail (Set II, Calbiochem)], scraped off the dish and incubated 1 hour to 4°C with shaking. Cell lysates were precleared by incubating with 10 µl protein A-agarose bead slurries (0.5 mL agarose/2 mL phosphate-buffered saline) for 30 min at 4°C, and then centrifuged three times for 5 minutes at 2500 rpm, to wash supernatants. […]

[3] = system: NF-κB1; assay: Canonical NF-κB1 activation, folic acid-induced renal injury in mice; type: in vivo; details: folic acid 300 mg/kg model; paricalcitol 25 µg/kg/day i.p.
Experimental: All animal procedures were performed according to the guidelines of animal research in the European Community and with prior approval by the Ethics Committee of the Health Research of the IIS-Fundacion Jiménez Díaz. For in vivo studies, mice received a daily intraperitoneal injection of the VDRA Paricalcitol starting 48 hours prior to induction of kidney damage.
At the time of sacrifice, animals were anesthetized with 5 mg/kg xylazine (Rompun, Bayer AG) and 35 mg/kg ketamine (Ketolar, Pfizer) and the kidneys perfused in situ with cold saline before removal. Then, kidney portions were fixed in formalin buffer for immunohistochemistry studies or immediately frozen in liquid nitrogen for gene and protein studies.
Folic acid nephropathy is a classical model of kidney tubulointerstitial injury and inflammation that has been reported in humans. Mice received a single intraperitoneal injection of folic acid (Sigma) 300 mg/kg in 0.3 mol/l sodium bicarbonate or vehicle, and were sacrificed 48 hours later. […]
(§2) For western blot, cell (25 µg/lane) and kidney (100-150 µg/lane) protein extracts were separated on 6%-12% polyacrylamide-SDS gels under reducing conditions. […] Autoradiographs were scanned using the Gel Doc™ EZ imager and analyzed with the Image Lab 3.0 software (BioRad).

[4] = system: TRAF3; assay: TRAF3 protein (western blot) and mRNA (real time RT-PCR) levels in PBMCs from ESRD patients treated or not with paricalcitol; type: in vivo, human; details: PBMCs of paricalcitol-treated ESRD patients on hemodialysis
Experimental: as §1, §2
Total RNA was isolated from cells and mouse kidney samples with Trizol (Invitrogen). […] The mRNA copy numbers were calculated for each sample by the instrument software using Ct value. Results are expressed in copy numbers, calculated relative to unstimulated cells or control mice, after normalization against 18S.

SMILES: C[C@H](/C=C/[C@H](C)C(C)(C)O)[C@H]1CC[C@H]2/C(=C/C=C3C[C@@H](O)C[C@H](O)C3)CCC[C@]12C [paricalcitol]
- proinflammatory gene expression levels [1]: significantly lower
- TRAF3 ubiquitination and CIAP1-TRAF3 complex formation [2]: prevented
- NF-κB1 activation, evaluated by IκB-α phosphorylation [3]: not modified
- TRAF3 mRNA levels ([4]; real time RT-PCR): no changes
- TRAF3 protein levels ([4]; western blot, vs healthy controls): restored to values in the range of healthy controls

Source: patent publication EP3748362A1, “IN VITRO METHOD FOR DETECTING RENAL DISEASE” (Fundacion Instituto De Investigacion Sanitaria Fundacion …, priority 2019, dated 2020)
